Structures are written as SMILES.

Common to all, as to conditions: exposure: 6-8 hpf to 5 dpf, scored at 6 dpf
Experiment [1] deals with Danio rerio embryo/larva. In words: BMC edema; higher = less potent. The method, then:
(§1)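 Zebrafish embryos (with chorion) were exposed from 6-8 hpf to each PFAS (8-point half-log series, top concentration up to 100 uM, 0.4% DMSO, sealed plates, 26 C; n = 6 embryos per concentration), rinsed at 5 dpf and scored at 6 dpf by two blinded observers for mortality, hatching and malformations. Endpoint scores are the % of living larvae affected (dead larvae excluded; […]). Curves were fitted with tcpl (cutoff 16%), and the BMC is the concentration at a benchmark response of 21.6%.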

The test system of experiment [2] is Danio rerio embryo/larva. In words: max % larvae unhatched across tested concentrations; max tested concentration (log10 uM): 2; higher = more toxic.
The test system of experiment [3] is Danio rerio embryo/larva. As to the kind of experiment: BMC swim bladder non-inflation; higher = less potent. The protocol:
as §1

The test system of experiment [4] is Danio rerio embryo/larva. In words: BMC any abnormality; max tested concentration (log10 uM): 2; higher = less potent. The method, then:
as §1

The subject of experiment [5] is Danio rerio embryo/larva. In words: max % larvae with any abnormality across tested concentrations; max tested concentration (log10 uM): 2; higher = more toxic; extreme values may be limits of the assay.
For experiment [6], the system named is Danio rerio embryo/larva. As to the kind of experiment: max % larvae dead across tested concentrations; max tested concentration (log10 uM): 2; higher = more toxic; extreme values may be limits of the assay.
[7] abbreviates: max tested concentration (log10 uM): 2.
The mark [8] stands for this setting: max tested concentration (log10 uM): 0.

For `CNS(=O)(=O)C(F)(F)C(F)(F)C(F)(F)C(F)(F)C(F)(F)C(F)(F)C(F)(F)C(F)(F)F` [N-Methylperfluorooctanesulfonamide], in the experiment with Danio rerio embryo/larva [1] (setting [7]), the BMC edema is 20.1 µM. The “max % larvae unhatched across tested concentrations” value in the experiment with Danio rerio embryo/larva [2] stood at 0%. For the same molecule, the “BMC swim bladder non-inflation” value in the experiment on Danio rerio embryo/larva [3] (setting [7]) was found to be 0.439 µM. The molecule further gave a BMC any abnormality in the experiment on Danio rerio embryo/larva [4] of 0.702 µM. The same molecule registered a max % larvae in the experiment with Danio rerio embryo/larva [5] of 95.8%.

`O=C(O)C(F)(F)OC(F)(F)C(F)(F)OC(F)(F)C(=O)O` [Perfluoro-3,6-dioxaoctane-1,8-dioic acid]: the “max % larvae dead across tested concentrations” value in the experiment with Danio rerio embryo/larva [6] turned out to be 0%. Besides, in the experiment on Danio rerio embryo/larva [2], the “max % larvae unhatched across tested concentrations” value came to 0%. In the experiment on Danio rerio embryo/larva [5], the max % larvae is 0%.

Turning to `O=C(O)C(F)(F)C(F)(F)OC(F)(F)F` [Perfluoro-3-methoxypropanoic acid], the “max % larvae dead across tested concentrations” value in the experiment with Danio rerio embryo/larva [6] worked out at 0%. Besides, in the experiment with Danio rerio embryo/larva [2], the “max % larvae unhatched across tested concentrations” value was 0%. In the experiment on Danio rerio embryo/larva [5], this molecule yielded a max % larvae of 16.7%.

As for `O=C(O)C(F)(F)C(F)(F)C(F)(F)OC(F)(C(F)(F)F)C(F)(F)F` [Perfluoro-4-isopropoxybutanoic acid], in the experiment with Danio rerio embryo/larva [6], the “max % larvae dead across tested concentrations” value came out at 0%. For the same molecule, the “max % larvae unhatched across tested concentrations” value in the experiment on Danio rerio embryo/larva [2] was determined as 0%. This molecule registered a max % larvae in the experiment with Danio rerio embryo/larva [5] of 0%.

On to `O=C(O)C(F)(F)C(F)(F)C(=O)O` [Perfluorobutanedioic acid], for which, in the experiment with Danio rerio embryo/larva [6], the “max % larvae dead across tested concentrations” value is 16.7%. Besides, the “max % larvae unhatched across tested concentrations” value in the experiment with Danio rerio embryo/larva [2] came out at 0%. The molecule also returned a max % larvae in the experiment on Danio rerio embryo/larva [5] of 16.7%.

Regarding `O=S(=O)(O)C(F)(F)C(F)(F)C(F)(F)C(F)(F)F` [Perfluorobutanesulfonic acid], in the experiment on Danio rerio embryo/larva [6], the “max % larvae dead across tested concentrations” value is 0%. The “max % larvae unhatched across tested concentrations” value with Danio rerio embryo/larva [2] came out at 0%. This molecule also yielded a max % larvae with Danio rerio embryo/larva [5] of 0%.

In the case of `O=C(O)C(F)(F)C(F)(F)C(F)(F)F` [Perfluorobutanoic acid], the “max % larvae dead across tested concentrations” value in the experiment on Danio rerio embryo/larva [6] is 0%. Besides, the “max % larvae unhatched across tested concentrations” value with Danio rerio embryo/larva [2] was determined as 0%. Further, the max % larvae in the experiment on Danio rerio embryo/larva [5] was determined as 20%.

`O=C(Cl)C(F)(F)C(F)(F)C(F)(F)C(F)(F)C(F)(F)C(F)(F)F` [Perfluoroheptanoyl chloride]: the “max % larvae dead across tested concentrations” value in the experiment with Danio rerio embryo/larva [6] is 0%. Besides, the “max % larvae unhatched across tested concentrations” value in the experiment with Danio rerio embryo/larva [2] is 0%. The max % larvae with Danio rerio embryo/larva [5] came out at 16.7%.

As for `O=C(O)C(F)(F)C(F)(F)C(F)(F)C(F)(F)C(=O)O` [Perfluorohexanedioic acid], in the experiment with Danio rerio embryo/larva [6], the “max % larvae dead across tested concentrations” value was 0%. Moreover, the “max % larvae unhatched across tested concentrations” value with Danio rerio embryo/larva [2] is 0%. This molecule also yielded a max % larvae in the experiment with Danio rerio embryo/larva [5] of 0%.

For `O=C(O)C(F)(F)C(F)(F)C(F)(F)C(F)(F)C(F)(F)F` [Perfluorohexanoic acid], in the experiment with Danio rerio embryo/larva [6], the “max % larvae dead across tested concentrations” value was 0%. In addition, the “max % larvae unhatched across tested concentrations” value with Danio rerio embryo/larva [2] turned out to be 0%. In the experiment with Danio rerio embryo/larva [5], this molecule had a max % larvae of 0%.

On to `O=C(Cl)C(F)(F)C(F)(F)C(F)(F)C(F)(F)C(F)(F)C(F)(F)C(F)(F)C(F)(F)F` [Perfluorononanoyl chloride], for which the “max % larvae dead across tested concentrations” value in the experiment with Danio rerio embryo/larva [6] amounted to 100%. In addition, the “max % larvae unhatched across tested concentrations” value with Danio rerio embryo/larva [2] worked out at 0%. For the same molecule, the BMC any abnormality in the experiment with Danio rerio embryo/larva [4] turned out to be 25 µM. Also, in the experiment with Danio rerio embryo/larva [5], the max % larvae came to 100%.

Regarding `NC(=O)C(F)(F)C(F)(F)C(F)(F)C(F)(F)C(F)(F)C(F)(F)C(F)(F)F` [Perfluorooctanamide], in the experiment on Danio rerio embryo/larva [6], the “max % larvae dead across tested concentrations” value was determined as 0%. Also, the “max % larvae unhatched across tested concentrations” value with Danio rerio embryo/larva [2] is 0%. The same molecule returned a max % larvae with Danio rerio embryo/larva [5] of 0%.

`NS(=O)(=O)C(F)(F)C(F)(F)C(F)(F)C(F)(F)C(F)(F)C(F)(F)C(F)(F)C(F)(F)F` [Perfluorooctanesulfonamide] yielded a BMC edema with Danio rerio embryo/larva [1] (setting [8]) of 0.563 µM. Further, in the experiment with Danio rerio embryo/larva [2], the “max % larvae unhatched across tested concentrations” value came out at 0%. Besides, the “BMC swim bladder non-inflation” value in the experiment with Danio rerio embryo/larva [3] (setting [8]) stood at 0.313 µM. Besides, the BMC any abnormality in the experiment with Danio rerio embryo/larva [4] turned out to be 0.261 µM. The molecule also registered a max % larvae in the experiment on Danio rerio embryo/larva [5] of 100%.

With `NC(=O)C(F)(F)C(F)(F)C(F)(F)C(F)F` [Perfluoropentanamide], the “max % larvae dead across tested concentrations” value in the experiment on Danio rerio embryo/larva [6] was 0%. In addition, the “max % larvae unhatched across tested concentrations” value with Danio rerio embryo/larva [2] was 0%. The max % larvae in the experiment with Danio rerio embryo/larva [5] was found to be 0%.

With `O=C(O)C(F)(F)C(F)(F)C(F)(F)C(=O)O` [Perfluoropentanedioic acid], the “max % larvae dead across tested concentrations” value in the experiment on Danio rerio embryo/larva [6] came to 0%. Also, in the experiment on Danio rerio embryo/larva [2], the “max % larvae unhatched across tested concentrations” value was 0%. Besides, the max % larvae in the experiment with Danio rerio embryo/larva [5] came to 0%.

As for `O=C(O)C(F)(F)C(F)(F)C(F)(F)C(F)(F)F` [Perfluoropentanoic acid], in the experiment on Danio rerio embryo/larva [6], the “max % larvae dead across tested concentrations” value turned out to be 0%. Moreover, the “max % larvae unhatched across tested concentrations” value with Danio rerio embryo/larva [2] was found to be 0%. Further, the max % larvae in the experiment on Danio rerio embryo/larva [5] was 25%.

Turning to `O=C(O)C(F)(F)C(F)(F)F` [Perfluoropropanoic acid], the “max % larvae dead across tested concentrations” value in the experiment with Danio rerio embryo/larva [6] came out at 0%. For the same molecule, the “max % larvae unhatched across tested concentrations” value in the experiment with Danio rerio embryo/larva [2] came out at 0%. The max % larvae with Danio rerio embryo/larva [5] came to 0%.

Regarding `O=S(=O)(O)C(F)(F)C(F)(F)C(F)(F)C(F)(F)F` [Potassium perfluorobutanesulfonate], the “max % larvae dead across tested concentrations” value in the experiment with Danio rerio embryo/larva [6] amounted to 0%. The “max % larvae unhatched across tested concentrations” value in the experiment with Danio rerio embryo/larva [2] is 0%. In addition, the max % larvae in the experiment on Danio rerio embryo/larva [5] was determined as 8.33%.

Consider `O=S(=O)(O)C(F)(F)C(F)(F)C(F)(F)C(F)(F)C(F)(F)C(F)(F)F` [Potassium perfluorohexanesulfonate], for which the “max % larvae unhatched across tested concentrations” value in the experiment on Danio rerio embryo/larva [2] was 0%. For the same molecule, the BMC any abnormality in the experiment on Danio rerio embryo/larva [4] is 31.3 µM. In the experiment on Danio rerio embryo/larva [5], this molecule displayed a max % larvae of 90.9%.

Turning to `O=C(O)C(F)(F)C(F)(F)C(F)(F)C(F)(F)C(F)(F)C(F)(F)C(F)(F)F` [Potassium perfluorooctanoate], the “max % larvae dead across tested concentrations” value in the experiment on Danio rerio embryo/larva [6] amounted to 16.7%. In addition, the “max % larvae unhatched across tested concentrations” value in the experiment on Danio rerio embryo/larva [2] is 0%. Further, in the experiment with Danio rerio embryo/larva [5], the max % larvae was found to be 16.7%.

For the molecule `O=C(O)C(F)(F)C(F)(F)C(F)(F)C(F)(F)C(F)(F)C(F)(F)C(F)(F)F` [Sodium perfluorooctanoate], the “max % larvae dead across tested concentrations” value in the experiment with Danio rerio embryo/larva [6] came to 0%. Also, the “max % larvae unhatched across tested concentrations” value in the experiment with Danio rerio embryo/larva [2] is 0%. Further, the max % larvae in the experiment with Danio rerio embryo/larva [5] was determined as 0%.

Take `FC(F)(F)COC(OCC(F)(F)F)OCC(F)(F)F` [tris(Trifluoroethoxy)methane]: the “max % larvae dead across tested concentrations” value in the experiment on Danio rerio embryo/larva [6] was determined as 0%. The “max % larvae unhatched across tested concentrations” value with Danio rerio embryo/larva [2] was found to be 0%. In addition, in the experiment on Danio rerio embryo/larva [5], the max % larvae is 0%.

Source of the values: the supplement of paper PMC11281043.
